Patent EP3685668B1, “COMPOSITION COMPRISING ACIBENZOLAR-S-METHYL AS EFFECTIVE INGREDIENT FOR CONTROLLING BURSAPHELENCHUS XYLOPHILUS DISEASE AND METHOD FOR CONTROLLING BURSAPHELENCHUS XYLOPHILUS USING SAME” (Industry Foundation of Chonnam National University, priority 2017, dated 2019)

Columns and labels:
Assay in all cases: qRT-PCR expression of induced resistance gene in pine tree callus
Type in all cases: cell-based
Conditions in all cases: 200 µg/mℓ, 24 hours
[1] = system: Hydroxyproline
Description: (§1) For in vitro analysis of induced resistance, the expression of PR genes and other plant defense-related genes was determined, which are evolved in various defense mechanisms including induced resistance. The primers of sixteen induced resistance-related genes of pine tree used in this invention were listed in the below and elongation factor_1 alpha were used as a reference gene. [Table 4] The primer list of defense resistance-related genes
(§2) After the treatment with 200 µg / mℓ of candidates of the selected induced resistance material, expression of the induced resistance-related gene in pine callus was determined by qRT-PCR using the primer pairs of defense resistance-related genes in Table 4. As a candidate group of an induced resistance material in pine tree, acibenzolar-S-methyl (ASM), TDL (Tiadinil), ITL (Isotianil), PBZ (Probenzole), AZO (Azoxystrobin), VMA (Validamycin A), MeJA (Methyl jasmonate), BABA (DL-3-aminobutyric acid), 2,3-BDO (2,3-Butanediol), GABA (r-Aminobutyric acid), glucan (Glucan), ER (Ergosterol), and AZA (Azelaic acid) were used. For the in vitro analysis of the expression of induced resistance gene in pine callus, the selected induced resistance materials were applied with 500 µℓ of LM liquid medium on a surface of pine tree callus (100 mg) in 12-well microplate to give final concentration of 200 µg/mℓ. Then, the callus surface was sufficiently reacted for 24 hours with the candidate of pine tree induced resistance material by shaking at 50 rpm in a 25 °C shaking incubator under dark condition. RNAs were extracted from the callus after completion of the reaction with an induced resistance material, followed by synthesis of cDNAs. Then, by carrying out qRT-PCR, the expression of induced resistance genes was determined. [Table 5] Expression of induced resistance gene in pine tree callus by TDL, PBZ, ASM, ITL, AZO, VMA, glucan, and AZA
(§3) Based on the results of assay using young plants and gene expression by selected induce resistance materials, it seemed that acibenzolar-S-methyl had the most excellent effect. Thus, the following tests were carried out using acibenzolar-S-methyl only. Expression of the induced resistance genes at different culture time after the chemical treatment was examined. For the in vitro assay, LM medium containing pine tree callus was treated with acibenzolar-S-methyl at concentration of 200 µg / mℓ, followed by reaction for 1 day, 7 days, or 14 days in a 25°C shaking incubator under dark condition. RNAs were extracted from the callus after the reaction followed by synthesis of cDNAs. Then, by carrying out qRT-PCR, the expression of the induced resistance genes was determined. Depending on reaction time after the treatment, i.e., after 1 day, 7 days, or 14 days, the expression of the obtained induced resistance genes was examined. As a result of the in vitro callus assay depending on reaction time after the treatment with acibenzolar-S-methyl, the expression of the induced resistance-related genes is the highest at 1 day after the treatment with acibenzolar-S-methyl and gradually diminished over time, as it is shown in Table 7. In this regard, it is contemplated that the expression of genes acquired by acibenzolar-S-methyl is not maintained in highly expressed state until the pathogen invasion and just memorized with at minimum level so that the energy consumption by plant can be efficiently managed. [Table 7] Expression of induced resistance gene in pine tree callus by acibenzolar-S-methyl depending on reaction time
(§4) To have an in vitro assay according to different methods of treatment with acibenzolar-S-methyl, two separate treatment methods, i.e., surface treatment (spraying treatment) of pine tree callus and direct application of the induced resistance material to an LM medium containing pine tree callus, were performed. […]

[2] = system: Xyloglucan
Description: as §1, §2, §3, §4

[3] = system: Antipeptide
Description: as §1, §2, §3, §4

[4] = system: PR_3 family class 4
Description: as §1, §2, §3, §4

[5] = system: Heat shock 70
Description: as §1, §2, §3, §4

[6] = system: PR_4 family
Description: as §1, §2, §3, §4

[7] = system: Extensin
Description: as §1, §2, §3, §4

[8] = system: PR_9 family
Description: as §1, §2, §3, §4

[9] = system: PR_5 family
Description: as §1, §2, §3, §4

[10] = system: PR_10 family
Description: as §1, §2, §3, §4

[11] = system: PR_2 family
Description: as §1, §2, §3, §4

[12] = system: PR_3 family class 1
Description: as §1, §2, §3, §4

[13] = system: Metallothionein
Description: as §1, §2, §3, §4

[14] = system: PR_1b family
Description: as §1, §2, §3, §4

Cc1ccc(NC(=O)c2snnc2C)cc1Cl [TDL, Tiadinil]
Expression of induced resistance gene, Hydroxyproline [1]: 0.97
Expression of induced resistance gene, Xyloglucan [2]: 1.23
Expression of induced resistance gene, Antipeptide [3]: 0.64
Expression of induced resistance gene, PR_3 family class 4 [4]: 1.22
Expression of induced resistance gene, Heat shock 70 [5]: 0.29
Expression of induced resistance gene, PR_4 family [6]: 1.24
Expression of induced resistance gene, Extensin [7]: 1.05
Expression of induced resistance gene, PR_9 family [8]: 1.48
Expression of induced resistance gene, PR_5 family [9]: 1.33
Expression of induced resistance gene, PR_10 family [10]: 1.19
Expression of induced resistance gene, PR_2 family [11]: 0.98
Expression of induced resistance gene, PR_3 family class 1 [12]: 0.82
Expression of induced resistance gene, Metallothionein [13]: 0.1
Expression of induced resistance gene, PR_1b family [14]: 1.05

OCC1=C[C@@H](N[C@H]2C[C@H](CO)[C@@H](O[C@H]3O[C@@H](CO)[C@H](O)[C@@H](O)[C@@H]3O)[C@H](O)[C@H]2O)[C@H](O)[C@@H](O)[C@@H]1O [VMA, Validamycin A]
Expression of induced resistance gene, Hydroxyproline [1]: 2.31
Expression of induced resistance gene, Xyloglucan [2]: 1.99
Expression of induced resistance gene, Antipeptide [3]: 2.36
Expression of induced resistance gene, PR_3 family class 4 [4]: 2.95
Expression of induced resistance gene, Heat shock 70 [5]: 2.19
Expression of induced resistance gene, PR_4 family [6]: 1.43
Expression of induced resistance gene, Extensin [7]: 0.66
Expression of induced resistance gene, PR_9 family [8]: 1.37
Expression of induced resistance gene, PR_5 family [9]: 4.66
Expression of induced resistance gene, PR_10 family [10]: 1.56
Expression of induced resistance gene, PR_2 family [11]: 0.83
Expression of induced resistance gene, PR_3 family class 1 [12]: 1.67
Expression of induced resistance gene, Metallothionein [13]: 0.99
Expression of induced resistance gene, PR_1b family [14]: 0.73

NCCCC(=O)O [GABA, r-Aminobutyric acid]
Expression of induced resistance gene, Hydroxyproline [1]: 5.98
Expression of induced resistance gene, Xyloglucan [2]: 3.46
Expression of induced resistance gene, Antipeptide [3]: 1.13
Expression of induced resistance gene, PR_3 family class 4 [4]: 8.75
Expression of induced resistance gene, Heat shock 70 [5]: 2.58
Expression of induced resistance gene, PR_4 family [6]: 1.95
Expression of induced resistance gene, Extensin [7]: 1.83
Expression of induced resistance gene, PR_9 family [8]: 0.7
Expression of induced resistance gene, PR_5 family [9]: 3.78
Expression of induced resistance gene, PR_10 family [10]: 1.57
Expression of induced resistance gene, PR_2 family [11]: 1.66
Expression of induced resistance gene, PR_3 family class 1 [12]: 3.07
Expression of induced resistance gene, Metallothionein [13]: 0.92
Expression of induced resistance gene, PR_1b family [14]: 1.78

O=C(O)CCCCCCCC(=O)O [AZA, Azelaic acid]
Expression of induced resistance gene, Hydroxyproline [1]: 0.9
Expression of induced resistance gene, Xyloglucan [2]: 0.76
Expression of induced resistance gene, Antipeptide [3]: 1.43
Expression of induced resistance gene, PR_3 family class 4 [4]: 1.16
Expression of induced resistance gene, Heat shock 70 [5]: 1.42
Expression of induced resistance gene, PR_4 family [6]: 0.99
Expression of induced resistance gene, Extensin [7]: 1.15
Expression of induced resistance gene, PR_9 family [8]: 1.27
Expression of induced resistance gene, PR_5 family [9]: 1.45
Expression of induced resistance gene, PR_10 family [10]: 1.16
Expression of induced resistance gene, PR_2 family [11]: 1.02
Expression of induced resistance gene, PR_3 family class 1 [12]: 1.12
Expression of induced resistance gene, Metallothionein [13]: 1.97
Expression of induced resistance gene, PR_1b family [14]: 1.15
